In patent publication US6875760B2 (Novo Nordisk A/S, priority 1999, dated 2005):
pIC50: −log10 of the molar value.

These molecules were tested against T1, human glucagon receptor (Homo sapiens, UniProt P47871) (assay: Glucagon Binding Assay (III)). Conditions: BHK cell membranes, WGA SPA beads, 125I-glucagon; read-out: Glu Bd Assay (III) IC50.
T1 construct: expressed in transfected cells; host or cells: BHK (baby hamster kidney) cells
Procedure, shortened: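 Non-specific binding was set with 500 nM glucagon in this SPA-type binding assay using WGA beads. The receptor source was a membrane preparation, kept on ice or at 4 °C, from BHK cells transfected with the human receptor. Scintillation counts were taken after 4 hours of shaking and 8–48 hours of settling.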

T1 sequence (P47871 26-477): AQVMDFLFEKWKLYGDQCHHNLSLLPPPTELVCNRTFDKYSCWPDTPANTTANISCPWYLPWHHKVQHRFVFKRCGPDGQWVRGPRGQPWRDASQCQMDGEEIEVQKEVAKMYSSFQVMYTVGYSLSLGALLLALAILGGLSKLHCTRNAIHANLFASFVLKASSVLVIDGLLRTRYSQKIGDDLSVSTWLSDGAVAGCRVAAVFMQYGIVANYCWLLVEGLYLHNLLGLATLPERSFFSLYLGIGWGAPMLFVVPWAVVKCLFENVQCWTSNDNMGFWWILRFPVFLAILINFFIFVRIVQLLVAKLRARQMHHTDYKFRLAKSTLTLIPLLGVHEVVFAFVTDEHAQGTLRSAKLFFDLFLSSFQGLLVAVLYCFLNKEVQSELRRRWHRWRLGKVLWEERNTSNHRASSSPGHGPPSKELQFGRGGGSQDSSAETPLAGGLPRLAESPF

| pIC50 | SMILES |
| --- | --- |
| 6.58 | CCCCOC(=O)c1ccc(NC(=O)N(Cc2ccc(C(=O)NCCC(=O)O)cc2)C2CCC(C(C)C)CC2)cc1 (centres unmarked) [Example 84, 4-[3-[4-(2-Carboxyethylcarbamoyl)benzyl]-3-(4-isopropylcyclohexyl)ureido]benzoic acid butyl ester] |
| 6.84 | CC(C)(C)C1CCC(N(Cc2ccc(C(=O)NCCC(=O)O)cc2)C(=O)Nc2ccc(Oc3ccccc3)nc2)CC1 (centres unmarked) [Example 246, 3-{4-[1-(4-tert-Butylcyclohexyl)-3-(6-phenoxypyridin-3-yl)ureidomethyl]benzoylamino}propionic acid] |
| 6.31 | CCC1CCC(N(Cc2ccc(C(=O)NCCC(=O)O)cc2)C(=O)Nc2cc(C(F)(F)F)cc(C(F)(F)F)c2)C1 (centres unmarked) [Example 85, 3-{4-[3-(3,5-Bis(trifluoromethyl)phenyl)-1-(3-ethylcyclopentyl)ureidomethyl]benzoylamino}propionic acid] |
| 5.55 | CC(C)(C)c1ccc(N(Cc2ccc(C(=O)Nc3nn[nH]n3)cc2)C(=O)Nc2cccc(C(=O)O)c2)cc1 [Example 456, 3-{3-(4-tert-Butylphenyl)-3-[4-(2H-tetrazol-5-ylcarbamoyl)benzyl]ureido}benzoic acid] |
| 7.42 | CC(C)(C)c1ccc(N(Cc2ccc(C(=O)NCCC(=O)O)cc2)C(=O)Nc2ccc3c(c2)C(=O)N(CC2CC2)C3=O)cc1 [Example 643, 3-{4-[3-(N′-[Cyclopropylmethyl]phthalimid-4-yl)-1-(4-tert-butylphenyl)ureidomethyl]benzoylamino}propionic acid] |
| 7.80 | O=C(Nc1nn[nH]n1)c1ccc(CN(C(=O)Nc2cccc(OC(F)(F)F)c2)c2ccc(C3CCCCC3)cc2)cc1 [Example 344, 4-[1-(4-Cyclohexylphenyl)-3-(3-trifluoromethoxyphenyl)ureidomethyl]-N-(2H-tetrazol-5-yl)benzamide] |
| 7.01 | CC(C)(C)C1CCC(N(Cc2ccc(C(=O)Nc3nn[nH]n3)cc2)C(=O)c2cc(-c3ccc(Cl)cc3)cs2)CC1 (centres unmarked) [Example 564, 4-(4-Chlorophenyl)thiophene-2-carboxylic acid (4-tert-butylcyclohexyl)-[4-(2H-tetrazol-5-ylcarbamoyl)benzyl]amide] |
| 7.82 | Cc1ccc(NC(=O)N(Cc2ccc(C(=O)Nc3nn[nH]n3)cc2)c2ccc(C3CCCCC3)cc2)cc1Cl [Example 327, 4-[3-(3-Chloro-4-methylphenyl)-1-(4-cyclohexylphenyl)ureidomethyl]-N-(2H-tetrazol-5-yl)benzamide] |
| 6.98 | CC(C)(C)c1ccc(N(Cc2ccc(C(=O)Nc3nn[nH]n3)cc2)C(=O)Nc2nc3ccc(OC(F)(F)F)cc3s2)cc1 [Example 615, 4-[1-(4-tert-Butylphenyl)-3-(6-trifluoromethoxy-benzothiazol-2-yl)ureidomethyl]-N-(2H-tetra-5-yl)benzamide] |
| 7.89 | Cc1cc(NC(=O)N(Cc2ccc(C(=O)Nc3nn[nH]n3)cc2)c2ccc(C3=CCCCC3)cc2)cc(C(F)(F)F)c1 [Example 362, 4-[1-(4-Cyclohex-1-enylphenyl)-3-(3-methyl-5-trifluoromethylphenyl)ureidomethyl]-N-(2H-tetrazol-5-yl)benzamide] |
| 7.43 | CCC(C)(C)C1CCC(N(Cc2ccc(C(=O)NCCC(=O)O)cc2)NC(=O)c2ccc(OC(F)(F)F)cc2)CC1 (centres unmarked) [Example 423, 3-{4-[N-[4-(1,1-Dimethylpropyl)cyclohexyl]-N′-(4-trifluoromethoxybenzoyl)hydrazinomethyl]benzoylamino}propionic acid] |
| 7.74 | O=C(Nc1nn[nH]n1)c1ccc(CN(C(=O)Nc2cc(F)cc(C(F)(F)F)c2)c2ccc(C3CCCCC3)cc2)cc1 [Example 262, 4-[1-(4-Cyclohexylphenyl)-3-(3-fluoro-5-trifluoromethylphenyl)ureidomethyl]-N-(2H-tetrazol-5-yl)benzamide] |
| 5.77 | CC(C)Oc1ccc(C(=O)N(Cc2ccc(C(=O)NCCC(=O)O)cc2)C2CCC(C(C)(C)C)CC2)cc1 (centres unmarked) [Example 526, 3-(4-{[(4-tert-Butylcyclohexyl)-(4-isopropoxybenzoyl)amino]methyl}benzoylamino)propionic acid] |
| 5.88 | CC(C)(C)C1CCC(N(Cc2ccc(C(=O)NCCC(=O)O)cc2)C(=O)Nc2cccc(S(C)(=O)=O)c2)CC1 (centres unmarked) [Example 252, 3-{4-[1-(4-tert-Butylcyclohexyl)-3-(3-methylsulfonylphenyl)ureidomethyl]benzoylamino}propionic acid] |
| 5.74 | O=C(O)CCNC(=O)c1ccc(CN(Cc2ccc(Cl)c(Cl)c2)C(=O)Nc2ccc(OC(F)(F)F)cc2)cc1 [Example 432, 3-{4-[1-(3,4-Dichlorobenzyl)-3-(4-trifluoromethoxyphenyl)ureidomethyl]benzoylamino}propionic acid] |
| 6.26 | CC(C)(C)C1CCC(N(Cc2ccc(C(=O)NCCC(=O)O)cc2)C(=O)Nc2ccc(-c3ccc(C#N)cc3)cc2)CC1 (centres unmarked) [Example 68, 3-{4-[1-(4-tert-Butylcyclohexyl)-3-(4′-cyanobiphenyl-4-yl)ureidomethyl]benzoylamino}propionic acid] |
| 7.59 | COc1cc(NC(=O)N(Cc2ccc(C(=O)Nc3nn[nH]n3)cc2)C2CCC(C(C)(C)C)CC2)cc(C(F)(F)F)c1 (centres unmarked) [Example 602, 4-[1-(4-tert-Butylcyclohexyl)-3-(3-methoxy-5-trifluoromethylphenyl)ureidomethyl]-N-(2H-tetrazol-5-yl)benzamide] |
| 7.21 | CSc1cccc(NC(=O)N(Cc2ccc(C(=O)Nc3nn[nH]n3)cc2)c2ccc(C3CCCCC3)cc2)c1 [Example 302, 4-[1-(4-Cyclohexylphenyl)-3-(3-methylsulfanylphenyl)ureidomethyl]-N-(2H-tetrazol-5-yl)benzamide] |
| 6.08 | CC1CCC(N(Cc2ccc(C(=O)NCCC(=O)O)cc2)C(=O)Nc2ccc(OC(F)(F)F)cc2)CC1 (centres unmarked) [Example 15, 3-{4-[1-(4-Methylcyclohexyl)-3-(4-trifluoromethoxyphenyl)ureidomethyl]benzoylamino}propionic acid] |
| 6.82 | O=C(Nc1nn[nH]n1)c1ccc(CN(C(=O)Nc2cccc([N+](=O)[O-])c2)c2ccc(OC(F)(F)F)cc2)cc1 [Example 285] |
| 5.46 | CS(=O)(=O)c1ccc(NC(=O)N(Cc2ccc(C(=O)Nc3nn[nH]n3)cc2)c2ccc(OC(F)(F)F)cc2)cc1 [Example 451, 4-[3-(4-Methylsulfonylphenyl)-1-(4-trifluoromethoxyphenyl)ureidomethyl]-N-(2H-tetrazol-5-yl)benzamide] |
| 7.49 | CC(C)(C)[Si](C)(C)OCc1cc(NC(=O)N(Cc2ccc(C(=O)Nc3nn[nH]n3)cc2)c2ccc(C3CCCCC3)cc2)ccc1OC(F)(F)F [Example 311, 4-[3-[3-(tert-Butyldimethylsilanyloxymethyl)-4-trifluoromethoxyphenyl]-1-(4-cyclohexylphenyl)ureidomethyl]-N-(2H-tetrazol-5-yl)benzamide] |
| 6.05 | CC(C)(C)C1CCC(N(Cc2ccc(C(=O)NCCC(=O)O)cc2)C(=O)Nc2ccc([N+](=O)[O-])cc2)CC1 (centres unmarked) [Example 67, 3-{4-[1-(4-tert-Butylcyclohexyl)-3-(4-nitrophenyl)ureidomethyl]benzoylamino}propionic acid] |
| 6.03 | CCCCC(CC)CN(Cc1ccc(C(=O)NCCC(=O)O)cc1)C(=O)Nc1ccc(Cl)cc1 (centres unmarked) [Example 38, 3-{4-[3-(4-Chlorophenyl)-1-(2-ethylhexyl)ureidomethyl]benzoylamino}propionic acid] |
| 6.70 | O=C(O)CCNC(=O)c1ccc(CN(C(=O)Nc2ccc(OC(F)(F)F)cc2)C2CCC3CCCCC3C2)cc1 (centres unmarked) [Example 79, 3-{4-[1-(Decahydronaphthalen-2-yl)-3-(4-trifluoromethoxyphenyl)ureidomethyl]benzoylamino}propionic acid] |
| 6.82 | CCCCC(CC)CN(Cc1ccc(C(=O)NCCC(=O)O)cc1)C(=O)Nc1ccc(C(F)(F)F)cc1 (centres unmarked) [Example 36, 3-{4-[1-(2-Ethylhexyl)-3-(4-trifluoromethylphenyl)ureidomethyl]benzoylamino}propionic acid] |
| 6.29 | O=C(O)CCNC(=O)c1ccc(CN(NC(=O)c2ccc(OC(F)(F)F)cc2)C2CCC3CCCCC3C2)cc1 (centres unmarked) [Example 427, 3-{4-[N-(Decahydronaphthalen-2-yl)-N′-(4-trifluoromethoxybenzoyl)hydrazinomethyl]benzoylamino}propionic acid] |

| SMILES | pIC50 |
| --- | --- |
| CC(C)(C)C1CCC(N(Cc2ccc(C(=O)NCCC(=O)O)cc2)C(=O)Oc2cccc(OC(F)(F)F)c2)CC1 (centres unmarked) [Example 408, 3-(4-{[(4-tert-Butylcyclohexyl)-(3-trifluoromethoxyphenoxycarbonyl)amino]methyl}benzoylamino)propionic acid] | 6.24 |
| CC(C)(C)C1CCC(N(Cc2ccc(C(=O)NCCC(=O)O)cc2)C(=O)Oc2ccc(OC(F)(F)F)cc2)CC1 (centres unmarked) [Example 405, 3-(4-{[(4-tert-Butylcyclohexyl)-(4-trifluoromethoxyphenoxecarbonyl)amino]methyl}benzoylamino)propionic acid] | 6.65 |
| O=C(O)CCNC(=O)c1ccc(CN(C(=O)Oc2cccc([N+](=O)[O-])c2)c2ccc(C3CCCCC3)cc2)cc1 [Example 414, 3-(4-{[(4-Cyclohexylphenyl)-(3-nitrophenoxycarbonyl)amino]methyl}benzoylamino)propionic acid] | 6.03 |
| CC(C)(C)C1CCC(N(Cc2ccc(C(=O)NCCC(=O)O)cc2)C(=O)Oc2ccc(Br)cc2Br)CC1 (centres unmarked) [Example 404, 3-(4-{[(4-tert-Butylcyclohexyl)-(2,4-dibromophenoxycarbonyl)amino]methyl}benzoylamino)propionic acid] | 6.46 |

Same assay, conditions: Glu Bd Assay (III) IC50 (nM), BHK cell membranes, WGA SPA beads, 125I-glucagon

| SMILES | IC50 [nM] |
| --- | --- |
| CC(C)(C)[C@H]1CC[C@H](N(Cc2ccc(C(=O)NCCC(=O)O)cc2)C(=O)Nc2ccc(OC(F)(F)F)cc2Br)CC1 [Example 242, 3-{4-[3-(2-Bromo-4-trifluoromethoxyphenyl)-1-(trans-4-tert-butylcyclohexyl)ureidomethyl]benzoylamino}propionic acid] | 153 |
